Data as given in patent US9529006B1, “Method for direct detection of lipid binding agents in membrane” (KING SAUD UNIVERSITY, priority 2015, dated 2016).
Where a SMILES comes first, the peptide text is derived from it. [ ]: non-standard residue; d: D form. Phe(ol) = N[C@H](CO)Cc1ccccc1; Aib = CC(C)(N)C(=O)O

Tests used:
[1] = Fluorescence measurements on liposome bound aptamers, liposomes containing PS; format: binding; conditions: liposomes containing 10% PS (DPPC and DPPS 9:1); 6-FAM tagged aptamer
Procedure: (§1) As defined herein, a liposome is a spherical vesicle having at least one lipid bilayer. The liposome can be used as a vehicle for administration of nutrients and pharmaceutical drugs. Liposomes can be prepared routinely by disrupting biological membranes (such as by sonication). Two different kinds of processes to address membrane effects of all three different classes of MAAs were developed. First, the electrophysiology (EP) trials were performed to record membrane currents across lipid bilayer membranes doped with AMPs (antimicrobial peptides) or CDs (chemotherapy drugs). […] To understand the membrane effect of aptamers, fluorescence (FL) measurements on liposome bound aptamers were performed. […]
(§2) The membrane effects of AMPs were tested using established electrophysiology technique. […] The solution with bound aptamers was then investigated for fluorescence quantification. […]
(§3) The aptamer-lipid binding aspects were addressed by preparing liposomes using known liposome technology. […] The solution with bound aptamers was then investigated for fluorescence quantification.
(§4) Binding affinity and selectivity of designed DNA aptamers were measured. […] The fluorescence (FL) measured in relative fluorescence units (RFU) is plotted against the [DNA] aptamer concentration. […]

[2] = Fluorescence measurements on liposome bound aptamers, liposome containing only PC; format: binding; conditions: liposomes containing no PS
Procedure: as §1, §2, §3, §4

[3] = Electrophysiology, membrane currents across planar lipid bilayers doped with chemotherapy drugs; conditions: 90 μM, pH=5.7, V=100 mV
Procedure: The gA channel activity was recorded at V=200 mV and Alm at V=150 mV. […] Traces representing gA and Alm channel activities in phospholipid bilayers were recorded at filter frequencies 2 kHz and 20 kHz, respectively.

[4] = Electrophysiology, gA and Alm channel currents in lipid bilayer; conditions: for conductance events in channels in lipid bilayer: gA V=200 mV, Alm V=150 mV
Procedure: As defined herein, a liposome is a spherical vesicle having at least one lipid bilayer. The liposome can be used as a vehicle for administration of nutrients and pharmaceutical drugs. Liposomes can be prepared routinely by disrupting biological membranes (such as by sonication). Two different kinds of processes to address membrane effects of all three different classes of MAAs were developed. First, the electrophysiology (EP) trials were performed to record membrane currents across lipid bilayer membranes doped with AMPs (antimicrobial peptides) or CDs (chemotherapy drugs). This technique helps to detect the presence of any stable, semi-stable or transient structures that might be induced into the lipid bilayer membrane as a result of MAA-lipid coexistence. To understand the membrane effect of aptamers, fluorescence (FL) measurements on liposome bound aptamers were performed. This method helps to understand the general lipid membrane binding of aptamers.
The membrane effects of AMPs were tested using established electrophysiology technique. Here, gA (gramicidin A) monomer with 15 amino acids was used for constructing gA channels and Alm (alamethicin) monomers were used for constructing Alm channels in a bilayer constructed using lipid 1,2-Dioleoyl-sn-Glycero-3-Phosphocholine. For the membrane effects of CDs, planar lipid bilayers were formed by applying a lipid cocktail of Phosphoethanolamine: phosphatydyleserine: phosphatidylcholine (5:3:2, v/v/v)/n-decane using the painting method over a 150 μm septum of a bilayer cuvette. The aptamer-lipid binding aspects were addressed by preparing liposomes using liposome technology. The liposomes were prepared with 1,2-dipalmitoyl-sn-glycero-3-phosphatidylcholine (DPPC) and 1,2-dipalmitoyl-sn-glycero-3-phospho-L-serine (sodium salt) (DPPS). Buffer with the liposome-bound and unbound aptamers containing 6-carboxyfluorescein (6-FAM) fluorescent tag attached at the 3′ end of the DNA sequence was separated using standard binding assay. The solution with bound aptamers was then investigated for fluorescence quantification. The following examples will further illustrate the direct detection method (DDM).
Membrane currents across lipid bilayer membranes doped with antimicrobial peptides (AMPs) or chemotherapy drugs (CDs) were investigated. The pattern of the general time dependent ion pore conducting current fluctuations is MAA specific. The amplitude and stability of the current events are found to vary due to the differences in the structures of MAAs. Some ion pores conduct currents with constant amplitudes over a period of time considered as pore lifetime. While a few other pores are found to conduct currents with fluctuating amplitudes over their lifetimes.
The gA channel activity was recorded at V=200 mV and Alm at V=150 mV. Here IgA=29±2, 113±5, 243±9 and 386±10 pA respectively are the discrete current levels 0, 1, 2, 3, . . . , etc. in Alm channel. Traces representing gA and Alm channel activities in phospholipid bilayers were recorded at filter frequencies 2 kHz and 20 kHz, respectively. A lower filter frequency for traces representing gA channel activity is alright because of the channel's relatively higher stability. In (B) the point count plots of the current traces through gA and Alm channels peak at discrete values of conductance.
AMP gA is reported to induce conductance events that conducts constant current IgA pA over its lifetime τgA. At the formation and breaking of a gA channel the current undergoes transitions between 0→IgA pA and IgA→0 pA respectively. The current transitions between 0 ? IgA pA happen instantaneously that means current transitions take almost no time. Here, IgA is constant (˜in low range pA) for any gA channel but TO appears with all possible values within a range 0 to a very high value in ms order]. With varied number of amino acids in gA monomer the value of both IgA and τgA vary. Detailed analysis can be found in ref. [2-6]. […]

Molecule: SIIAp2: designed DNA aptamer, sequence (5′ → 3′) CAGAAAAAAAT (DNA, backbone and methylation of C not given here; further chemistry not fully specified)
- binding of aptamer with liposomes containing PS (fluorescence, RFU vs [DNA]) [1]: selective binding

Molecule: SIIAp1: designed DNA aptamer, sequence (5′ → 3′) CAGAAAAAAAC (DNA, backbone and methylation of C not given here; further chemistry not fully specified)
- binding of aptamer with liposomes containing PS (fluorescence, RFU vs [DNA]) [1]: selective binding
- binding of aptamer with liposome containing only PC (fluorescence) [2]: low non-specific binding

Molecule: COc1c(O[C@@H]2O[C@H](CO)[C@@H](O)[C@H](O)[C@H]2O)cc2c(c1OC)-c1ccc(SC)c(=O)cc1[C@@H](NC(C)=O)CC2 [TCC, thiocolchicoside]
- conductance events induced in lipid bilayer [3]: triangular-shaped conductance events

Molecule: gramicidin A [gA]
- conductance events in channels in lipid bilayer [4]: rectangular-shape conductance events

Molecule: CC(=O)NC(C)(C)C(=O)N1CCC[C@H]1C(=O)NC(C)(C)C(=O)N[C@@H](C)C(=O)NC(C)(C)C(=O)N[C@@H](C)C(=O)N[C@@H](CCC(N)=O)C(=O)NC(C)(C)C(=O)N[C@H](C(=O)NC(C)(C)C(=O)NCC(=O)N[C@@H](CC(C)C)C(=O)NC(C)(C)C(=O)N1CCC[C@H]1C(=O)N[C@H](C(=O)NC(C)(C)C(=O)NC(C)(C)C(=O)N[C@@H](CCC(=O)O)C(=O)N[C@@H](CCC(N)=O)C(=O)N[C@H](CO)Cc1ccccc1)C(C)C)C(C)C [Alm, alamethicin] (Ac-[Aib]P[Aib]A[Aib]AQ[Aib]V[Aib]GL[Aib]PV[Aib][Aib]EQ[Phe(ol)])
- discrete current level 0 in Alm channel ([4]; V=150 mV, level 0): 29±2 pA
- discrete current level 1 in Alm channel ([4]; V=150 mV, level 1): 113±5 pA
- discrete current level 2 in Alm channel ([4]; V=150 mV, level 2): 243±9 pA
- discrete current level 3 in Alm channel ([4]; V=150 mV, level 3): 386±10 pA
- conductance events in channels in lipid bilayer [4]: rectangular-shape conductance events
